Data set [1] relates to Puccinia recondita f. sp. tritici. Nature of the data set: Puccinia recondita f. sp. tritici / wheat / leaf disc preventative (brown rust). The data set is classed as in vivo. Conditions: foliar, wheat leaf segments cv. Kanzler, compared to untreated control leaf disks, read-out: disease control. Here is the method:
Puccinia recondita f. sp. tritici/Wheat/Leaf Disc Preventative (Brown Rust) Wheat leaf segments cv. Kanzler were placed on agar in multiwell plates (24-well format) and sprayed with the formulated test compound diluted in water. The leaf disks were inoculated with a spore suspension of the fungus 1 day after application. The inoculated leaf segments were incubated at 19° C. and 75% rh under a light regime of 12 h light/12 h darkness in a climate cabinet and the activity of a compound was assessed as percent disease control compared to untreated when an appropriate level of disease damage appears in untreated check leaf segments (7-9 days after application).

Data set [2] has the same test system. Nature of the data set: Puccinia recondita f. sp. tritici / wheat / leaf disc curative (brown rust). It is filed as in vivo. The settings on record: foliar, 24 h, wheat leaf segments cv. Kanzler, curative (applied 1 day after inoculation), compared to untreated control leaf disks, read-out: disease control. Here is the method:
Puccinia recondita f. sp. tritici/Wheat/Leaf Disc Curative (Brown Rust) Wheat leaf segments cv. Kanzler are placed on agar in multiwell plates (24-well format). The leaf segments are inoculated with a spore suspension of the fungus. Plates were stored in darkness at 19° C. and 75% rh. The formulated test compound diluted in water was applied 1 day after inoculation.

Data set [3] deals with Blumeria graminis f. sp. tritici (Erysiphe graminis f. sp. tritici). Nature of the data set: Blumeria graminis f. sp. tritici / wheat / leaf disc preventative (powdery mildew on wheat). Conditions: foliar, wheat leaf segments cv. Kanzler, compared to untreated control leaf disks, read-out: disease control. It is filed as in vivo. The text has this:
Blumeria graminis f. sp. tritici (Erysiphe graminis f. sp. tritici)/Wheat/Leaf Disc Preventative (Powdery Mildew on Wheat) Wheat leaf segments cv. Kanzler were placed on agar in a multiwell plate (24-well format) and sprayed with the formulated test compound diluted in water. The leaf disks were inoculated by shaking powdery mildew infected plants above the test plates 1 day after application.

Usually melting point stands for the temperature of the solid-liquid transition. Take `COc1cc(/N=C/N(C)C(C)C)c(C)cc1C(O)(c1ccccc1)C(F)(F)F` (centres unmarked) [Compound E1.009]: the melting point is 110 to 111 °C. The pest or weed control at 200 ppm in data set [1] is at least 80%. Further, in data set [2], the pest or weed control at 200 ppm was at least 80%. As for `CCN(C)/C=N/c1cc(OC)c(C(O)(c2ccc(C(F)(F)F)cc2)C(F)(F)F)cc1C` (centres unmarked) [Compound E1.019], the melting point lay within 124 to 126 °C. Further, the pest or weed control at 200 ppm in data set [3] was at least 80%. Also, the pest or weed control at 200 ppm in data set [1] was at least 80%. The pest or weed control at 200 ppm in data set [2] is at least 80%. `CCN(C)/C=N/c1cc(OC)c(C(O)(c2ccc(Cl)cc2)C(F)(F)F)cc1C` (centres unmarked) [Compound E1.021] displayed a melting point of 134 to 135 °C. For the same compound, the pest or weed control at 200 ppm in data set [3] is at least 80%. The pest or weed control at 200 ppm in data set [1] is at least 80%. Also, in data set [2], the pest or weed control at 200 ppm is at least 80%. `CCN(C)/C=N/c1cc(OC)c(C(O)(c2ccc(Br)cc2)C(F)(F)F)cc1C` (centres unmarked) [Compound E1.025] displayed a melting point of 127 to 129 °C. Also, the pest or weed control at 200 ppm in data set [3] was at least 80%. Further, in data set [1], the pest or weed control at 200 ppm is at least 80%. Also, the pest or weed control at 200 ppm in data set [2] was at least 80%. `CCN(C)/C=N/c1cc(OC)c(C(O)(c2ccccc2SC)C(F)(F)F)cc1C` (centres unmarked) [Compound E1.032] came in with a melting point of 104 to 106 °C. The pest or weed control at 200 ppm in data set [3] is at least 80%. In addition, the pest or weed control at 200 ppm in data set [1] was at least 80%. The pest or weed control at 200 ppm in data set [2] was at least 80%. Take `CCN(C)/C=N/c1cc(OC)c(C(O)(c2ccccc2S(C)(=O)=O)C(F)(F)F)cc1C` (centres unmarked) [Compound E1.036]: the melting point was in the range of 177 to 180 °C. In data set [1], the pest or weed control at 200 ppm was at least 80%. Also, the pest or weed control at 200 ppm in data set [2] was at least 80%. The compound `CCOC(=O)c1ccc(C(O)(c2cc(C)c(/N=C/N(C)CC)cc2OC)C(F)(F)F)cc1` (centres unmarked) [Compound E1.039] gave a melting point of 118 to 120 °C. In addition, the pest or weed control at 200 ppm in data set [3] was at least 80%. The pest or weed control at 200 ppm in data set [2] was at least 80%.

Compound `CCN(C)/C=N/c1cc(OC)c(C(O)(c2ccc(C#N)cc2)C(F)(F)F)cc1C` (centres unmarked) [Compound E1.040] came in with a melting point of 167 to 169 °C. The pest or weed control at 200 ppm in data set [3] was at least 80%. Also, in data set [2], the pest or weed control at 200 ppm is at least 80%. In turn, `CCN(C)/C=N/c1cc(OC)c(C(O)(c2ccc(SC)cc2)C(F)(F)F)cc1C` (centres unmarked) [Compound E1.041] displayed a melting point of 89 to 91 °C. Moreover, the pest or weed control at 200 ppm in data set [3] is at least 80%. Moreover, in data set [2], the pest or weed control at 200 ppm was at least 80%. In turn, `CCN(C)/C=N/c1cc(OC)c(C(O)(c2ccc(O)cc2)C(F)(F)F)cc1C` (centres unmarked) [Compound E1.043] registered a melting point of 240 to 242 °C. Besides, the pest or weed control at 200 ppm in data set [3] is at least 80%. In addition, the pest or weed control at 200 ppm in data set [2] is at least 80%.

Compound `CCN(C)/C=N/c1cc(OC)c(C(O)(C#Cc2ccccc2)C(F)(F)F)cc1C` (centres unmarked) [Compound E1.073] had a melting point of 88 to 90 °C. In data set [1], the pest or weed control at 200 ppm is at least 80%. `CCN(C)/C=N/c1cc(OC)c(C(O)(C#CC2CCCCC2)C(F)(F)F)cc1C` (centres unmarked) [Compound E1.085] showed a melting point of 62 to 64 °C. Also, the pest or weed control at 200 ppm in data set [2] is at least 80%. `CCN(C)/C=N/c1cc(OC)c(C(O)(Cc2cc(C)nc(OC)n2)C(F)(F)F)cc1C` (centres unmarked) [Compound E1.094] gave a melting point of 117 to 119 °C. In addition, the pest or weed control at 200 ppm in data set [3] is at least 80%. The pest or weed control at 200 ppm in data set [1] was at least 80%. For the same compound, in data set [2], the pest or weed control at 200 ppm is at least 80%. `CCN(C)/C=N/c1cc(SC)c(C(O)(c2ccccc2)C(F)(F)F)cc1C` (centres unmarked) [Compound E1.113] returned a melting point of 160 to 165 °C. In addition, the pest or weed control at 200 ppm in data set [3] is at least 80%. Further, in data set [2], the pest or weed control at 200 ppm was at least 80%. Take `CCN(C)/C=N/c1cc(OC)c(C(O)(c2cccc(F)c2C)C(F)(F)F)cc1C` (centres unmarked) [Compound E1.132]: the melting point lay within 107 to 109 °C. As to `CCN(/C=N/c1cc(OC)c(C(O)(C(C)C)C(F)(F)F)cc1C)CC` (centres unmarked) [Compound E1.133], the melting point is 60 to 62 °C. `CCCCC(O)(c1cc(C)c(/N=C/N2CCCC2)cc1OC)C(F)(F)F` (centres unmarked) [Compound E1.134] came in with a melting point of 103 to 105 °C. The same measure, in the same setting: the same measure for `COc1cc(/N=C/N(C)C(C)C)c(C)cc1C(O)(c1cc(F)ccc1F)C(F)(F)F` (centres unmarked) [Compound E1.135]: 112 to 115 °C. `COc1cc(/N=C/N2CCCC2)c(C)cc1C(O)(C(C)C)C(F)(F)F` (centres unmarked) [Compound E1.135] yielded a melting point of 102 to 104 °C. `COc1cc(/N=C/N2CCCC2)c(C)cc1C(O)(c1ccccc1)C(F)(F)F` (centres unmarked) [Compound E1.135] returned a melting point of 157 to 159 °C. `COc1cc(/N=C/N(C)C)c(C)cc1C(O)(c1ccccc1)C(F)(F)F` (centres unmarked) [Compound E1.137]: the melting point is 133 to 135 °C. On to `CCN(/C=N/c1cc(OC)c(C(O)(c2ccccc2)C(F)(F)F)cc1C)CC` (centres unmarked) [Compound E1.139], for which the melting point was in the range of 102 to 104 °C. Still for that read-out and setting: as for `COc1cc(/N=C/N(C)C(C)C)c(C)cc1C(O)(C=C(C)C)C(F)(F)F` (centres unmarked) [Compound E1.141], the figure is 77 to 79 °C. The compound `CCN(C)/C=N/c1cc(OC)c(C(O)(c2cccc(F)c2F)C(F)(F)F)cc1C` (centres unmarked) [Compound E1.143] yielded a melting point of 130 to 132 °C.

As to `COc1cc(/N=C/N(C)C(C)C)c(C)cc1C(O)(c1cccc(F)c1F)C(F)(F)F` (centres unmarked) [Compound E1.144], the melting point was 97 to 99 °C.

With `CCN(C)/C=N/c1cc(OC)c(C(O)(c2cc(F)ccc2C)C(F)(F)F)cc1C` (centres unmarked) [Compound E1.145], the melting point is 95 to 97 °C. `COc1cc(/N=C/N(C)C(C)C)c(C)cc1C(O)(c1cc(F)ccc1C)C(F)(F)F` (centres unmarked) [Compound E1.146]: the melting point fell in the range of 116 to 118 °C. Consider `CCN(C)/C=N/c1cc(OC)c(C(O)(c2c(F)cccc2F)C(F)(F)F)cc1C` (centres unmarked) [Compound E1.147], for which the melting point lay within 128 to 130 °C. `COc1cc(/N=C/N(C)C(C)C)c(C)cc1C(O)(c1c(F)cccc1F)C(F)(F)F` (centres unmarked) [Compound E1.148]: the melting point was 119 to 121 °C. The compound `COc1cc(/N=C/N(C)C(C)C)c(C)cc1C(O)(c1ccccc1C)C(F)(F)F` (centres unmarked) [Compound E1.148] showed a melting point of 138 to 140 °C. `COc1cc(/N=C/N(C)C(C)C)c(C)cc1C(O)(c1cc(F)cc(F)c1)C(F)(F)F` (centres unmarked) [Compound E1.149]: the melting point fell in the range of 110 to 112 °C. Same read-out and setting: the same measure for `COc1cc(/N=C/N(C)C(C)C)c(C)cc1C(O)(c1ccccc1F)C(F)(F)F` (centres unmarked) [Compound E1.150]: 86 to 88 °C.

For `COc1cc(/N=C/N(C)C(C)C)c(C)cc1C(O)(c1ccccc1Cl)C(F)(F)F` (centres unmarked) [Compound E1.151], the melting point fell in the range of 67 to 69 °C. On to `COc1cc(/N=C/N(C)C(C)C)c(C)cc1C(O)(c1cccc(F)c1)C(F)(F)F` (centres unmarked) [Compound E1.152], for which the melting point was 92 to 94 °C. `CCN(C)/C=N/c1cc(OC)c(C(O)(c2ccccc2)C(F)(F)F)cc1F` (centres unmarked) [Compound E1.153]: the melting point lay in the range of 144 to 146 °C. On the same count and under the same terms, as for `CCN(C)/C=N/c1cc(OC)c(C(O)(c2cccnc2F)C(F)(F)F)cc1C` (centres unmarked) [Compound E1.157], the figure is 113 to 115 °C. The same measure, in the same setting: as for `COc1cc(/N=C/N(C)C(C)C)c(C)cc1C(O)(c1cccnc1F)C(F)(F)F` (centres unmarked) [Compound E1.158], the figure is 120 to 122 °C.
